We go through 25 molecules from patent US9562053B2, “Benzo-fused heterocyclic derivatives useful as agonists of GPR120” (Janssen Pharmaceutica NV, priority 2013, dated 2017).

In this experiment the target is T1, long form of human GPR120 (Homo sapiens, UniProt Q5NUL3).
T1 construct: host or cells: PathHunter CHO-K1 GPR120 β-Arrestin Cell Line
T1 sequence (Q5NUL3 1-377 isoform Q5NUL3-1): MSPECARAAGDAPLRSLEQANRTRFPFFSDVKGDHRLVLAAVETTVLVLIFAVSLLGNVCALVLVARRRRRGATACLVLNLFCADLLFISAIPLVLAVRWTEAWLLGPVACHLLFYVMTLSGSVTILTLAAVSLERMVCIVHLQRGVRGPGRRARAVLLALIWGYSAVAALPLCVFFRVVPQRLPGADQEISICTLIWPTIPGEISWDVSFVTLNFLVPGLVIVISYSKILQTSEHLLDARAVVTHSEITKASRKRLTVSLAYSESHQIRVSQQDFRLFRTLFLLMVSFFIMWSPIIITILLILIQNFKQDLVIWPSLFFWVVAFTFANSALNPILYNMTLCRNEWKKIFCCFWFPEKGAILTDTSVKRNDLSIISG
Put plainly: Human GPR120 DiscoveRx PathHunter Beta-Arrestin Assay, Procedure β-arrestin A (3000 cells per well). Format: cell-based. The following applies: read-out: GPR120 B-arrestin A EC50. An excerpt: The binding of an agonist (medium/long chain fatty acids or small molecule agonists) to the G-protein-coupled receptor GPR120 activates phospholipase C, leading to release of intracellular Ca^+2 through the generation of inositol 1,4,5-trisphosphate (InsP3 or IP3). GPR120 activation can also trigger intracellular signaling via recruitment of β-Arrestin. In the present method, agonist-induced activation of the human GPR120 receptor is monitored through the use of PathHunter CHO-K1 GPR120 β-Arrestin Cell Line engineered by DiscoveRx, as detailed below. The cell lines are designed to co-express both the ProLink/Enzyme Donor (PK)-tagged GPCR and the Enzyme Activator (EA)-tagged β-Arrestin fusion proteins. Upon GPR120 receptor stimulation/activation, the EA-tagged β-Arrestin portion is translocated to the tagged receptor, where the two enzyme fragments are brought within close proximity. Under these conditions, these fragments can interact and form an active Beta-gal enzyme complex through Enzyme Fragment Complementation (EFC). This active Beta-gal complex can enzymatically hydrolyse the substrate to produce a detectable light signal; therefore, activation as a function of agonist concentration can be expressed as an EC50 value to determine relative compound activities. This in vitro assay therefore serves to assess compound agonist activity of the GPR120.
In Procedure β-arrestin A, the cell used were PathHunter CHO-K1 GPR120 β-Arrestin Cell Line, expressing the long form of human GPR120 (Genbank accession number NM_181745), with 3000 cells per well.
The selected CHO-K1 GPR120 β-Arrestin cells were cultured in Ham's F12 media supplemented with 10% fetal bovine serum (FBS), 1% Glutamine, 1×p/s, 800 μg/ml G418 and 300 μg/ml Hygromycin B (for selection). Cell stocks were maintained and grown in a sub-confluent state using standard cell culture procedures. The day before the experiment, the cells were harvested with non-enzymatic cell dissociation buffer and re-suspended in complete growth media at the desired concentration. A Corning 384-plate was then seeded with the proper number of cells in a volume of 25 μL, per well. The seeded plates were incubated overnight at 37° C.
On the day of the experiment, the Assay Buffer containing (a) HBSS with Ca^++ and Mg^++, (b) 20 mM HEPES, and (c) 0.1% BSA stabilizer (pH 7.4) was prepared. The growth medium was gently removed from the cell plates and 20 μL of Assay Buffer added to each well. The plate was then incubated at 37° C. for 60 mins. Test compounds were serially diluted in Assay Buffer to desired concentrations (more particularly, to one or more of the following μM concentrations: 25 μM, 12.5 μM, 6.25 μM, 3.125 μM, 1.562 μM, 0.781 μM, 0.391 μM, 0.195 μM, 0.098 μM, 0.049 μM, 0.024 μM, 0.012 μM). Five μl of compound dilution was then added to each well and the plate incubated at 37° C. for 90 mins. The detection reagents were prepared according to the manufacture's instruction. Twelve μL of the detection reagents were added to each well and the plate incubated at room temperature for 60 mins.
The plates were read on an EnVision instrument, using Protocol name: Luminescence, Plate type: 384 Costar, Measurement height: 3 mm, Measurement time: 1 s, Aperture: 384 Plate aperture. The % activity relative to the positive control was calculated using the following equation:
The % Activity values were plotted versus the concentration of test compound and fitted to a sigmoidal dose-response curve with a Hill slope=1 (fixed value) using nonlinear regression with GraphPad Prism 5.0 to calculate the EC50 values. The Fitting Equation was: Y=Bottom+(Top−Bottom)/(1+10^((LogEC50−X)*HillSlope)), where X is the log of the concentration and Y is the response.

On to `CCc1cc2cc(Cl)c(OC(F)F)c(COc3ccc(CCC(=O)O)c(C)c3C)c2o1` [Compound 69, 3-(4-{[5-Chloro-6-(difluoromethoxy)-2-ethyl-1-benzofuran-7-yl]methoxy}-2,3-dimethylphenyl)propanoic acid], for which the EC50 was 223 nM.
The figure for `Cc1cc2cc(OC(F)(F)F)cc(COc3ccc(CCC(=O)O)c(C)c3C)c2o1` [Compound 36, 3-(2,3-Dimethyl-4-{[2-methyl-5-(trifluoromethoxy)-1-benzofuran-7-yl]methoxy}phenyl)propanoic acid] is 85 nM.
On to `Cc1cc2cc(Cl)c(C)c(COc3ccc(CCC(=O)O)c(C)c3C)c2o1` [Compound 85, 3-{4-[(5-Chloro-2,6-dimethyl-1-benzofuran-7-yl)methoxy]-2,3-dimethylphenyl}propanoic acid], for which the EC50 came out at 238 nM.
The figure for `Cc1cc2cc(OC(F)(F)F)cc(COc3ccc(CCC(=O)O)c4c3CCC4)c2o1` [Compound 55, 3-(7-{[2-Methyl-5-(trifluoromethoxy)-1-benzofuran-7-yl]methoxy}-2,3-dihydro-1H-inden-4-yl)propanoic acid] is 73 nM; for `CCc1cc2cc(Cl)cc(COc3ccc(CCC(=O)O)c4c3CCC4)c2o1` [Compound 54, 3-{7-[(5-Chloro-2-ethyl-1-benzofuran-7-yl)methoxy]-2,3-dihydro-1H-inden-4-yl}propanoic acid] it is 429 nM.
The figure for `Cc1cc2cc(Cl)cc(COc3ccc(CCC(=O)O)c(C)c3C)c2s1` [Compound 91, 3-{4-[(5-Chloro-2-methyl-1-benzothiophen-7-yl)methoxy]-2,3-dimethylphenyl}propanoic acid] is 629 nM; for `CCCc1cc(OCc2cc(OC(F)(F)F)cc3cc(CC)oc23)c(F)cc1CCC(=O)O` [Compound 50, 3-(4-{[2-Ethyl-5-(trifluoromethoxy)-1-benzofuran-7-yl]methoxy}-5-fluoro-2-propylphenyl)propanoic acid] it is 496 nM; for `CCc1cc2cc(F)cc(COc3c(F)cc(CCC(=O)O)cc3F)c2o1` [Compound 17, 3-{4-[(2-Ethyl-5-fluoro-1-benzofuran-7-yl)methoxy]-3,5-difluorophenyl}propanoic acid] it is 455 nM.
Consider `Cc1cc2cc(Cl)cc(COc3ccc(CCC(=O)O)c(C)c3C)c2o1` [Compound 78, 3-{4-[(5-Chloro-2-methyl-1-benzofuran-7-yl)methoxy]-2,3-dimethylphenyl}propanoic acid], for which the EC50 is 121 nM.
The figure for `Cc1c(CCC(=O)O)ccc(OCc2cc(OC(F)(F)F)cc3cc(CC(F)F)oc23)c1C` [Compound 96, 3-(4-{[2-(2,2-Difluoroethyl)-5-(trifluoromethoxy)-1-benzofuran-7-yl]methoxy}-2,3-dimethylphenyl)propanoic acid] is 148 nM; for `Cc1oc2cc(Cl)cc(COc3ccc(CCC(=O)O)c(C)c3C)c2c1C` [Compound 80, 3-{4-[(6-Chloro-2,3-dimethyl-1-benzofuran-4-yl)methoxy]-2,3-dimethylphenyl}propanoic acid] it is 249 nM; for `Cc1c(CCC(=O)O)ccc(OCc2cc(F)cc3cc(C(F)F)oc23)c1C` [Compound 32, 3-(4-{[2-(Difluoromethyl)-5-fluoro-1-benzofuran-7-yl]methoxy}-2,3-dimethylphenyl)propanoic acid] it is 2910 nM.
As to `Cc1cc2cc(Cl)cc(COc3c(F)cc(CCCO)cc3F)c2s1` [Compound 93, 3-{4-[(5-Chloro-2-methyl-1-benzothiophen-7-yl)methoxy]-3,5-difluorophenyl}propan-1-ol], the EC50 came to 536 nM.
The figure for `CCc1cc2cc(OC(F)(F)F)cc(COc3ccc(CCC(=O)O)c4c3CCC4)c2o1` [Compound 52, 3-(7-{[2-Ethyl-5-(trifluoromethoxy)-1-benzofuran-7-yl]methoxy}-2,3-dihydro-1H-inden-4-yl)propanoic acid] is 374 nM; for `CCc1cc2cc(Cl)c(OC(C)C)c(COc3ccc(CCC(=O)O)c(C)c3C)c2o1` [Compound 65, 3-(4-{[5-Chloro-2-ethyl-6-(1-methylethoxy)-1-benzofuran-7-yl]methoxy}-2,3-dimethylphenyl)propanoic acid] it is 240 nM; for `Cc1c(CCC(=O)O)ccc(OCc2cc(F)cc3cc(C(F)(F)F)oc23)c1C` [Compound 4, 3-(4-{[5-Fluoro-2-(trifluoromethyl)-1-benzofuran-7-yl]methoxy}-2,3-dimethylphenyl)propanoic acid] it is 5210 nM.
The figure for `Cc1c(CCC(=O)O)ccc(OCc2cc(F)cc3cc(CC(C)C)oc23)c1C` [Compound 23, 3-(4-{[5-Fluoro-2-(2-methylpropyl)-1-benzofuran-7-yl]methoxy}-2,3-dimethylphenyl)propanoic acid] is 470 nM; for `CCCc1cc2cc(OC(F)F)cc(COc3ccc(CCC(=O)O)c(C)c3C)c2o1` [Compound 77, 3-(4-{[5-(Difluoromethoxy)-2-propyl-1-benzofuran-7-yl]methoxy}-2,3-dimethylphenyl)propanoic acid] it is 176 nM; for `CCc1cc2ccc(OC(F)F)c(COc3ccc(CCC(=O)O)c(C)c3C)c2o1` [Compound 70, 3-(4-{[6-(Difluoromethoxy)-2-ethyl-1-benzofuran-7-yl]methoxy}-2,3-dimethylphenyl)propanoic acid] it is 2500 nM.
The figure for `CCc1cc2cc(Cl)c(OCC(F)(F)F)c(COc3ccc(CCC(=O)O)c(C)c3C)c2o1` [Compound 64, 3-(4-{[5-Chloro-2-ethyl-6-(2,2,2-trifluoroethoxy)-1-benzofuran-7-yl]methoxy}-2,3-dimethylphenyl)propanoic acid] is 271 nM; for `CCCc1cc2cc(C(F)(F)F)cc(COc3ccc(CCC(=O)O)c(C)c3C)c2o1` [Compound 37, 3-(2,3-Dimethyl-4-{[2-propyl-5-(trifluoromethyl)-1-benzofuran-7-yl]methoxy}phenyl)propanoic acid] it is 271 nM; for `CCc1cc2cc(OC(F)F)cc(COc3ccc(CCC(=O)O)c(C)c3C)c2o1` [Compound 57, 3-(4-{[5-(Difluoromethoxy)-2-ethyl-1-benzofuran-7-yl]methoxy}-2,3-dimethylphenyl)propanoic acid] it is 77 nM.
As to `COCc1cc2cc(F)cc(COc3ccc(CCC(=O)O)c(C)c3C)c2o1` [Compound 21, 3-(4-{[5-Fluoro-2-(methoxymethyl)-1-benzofuran-7-yl]methoxy}-2,3-dimethylphenyl)propanoic acid], the EC50 was 458 nM.
The figure for `Cc1cc2cc(Cl)c(C)c(COc3c(F)cc(CCC(=O)O)cc3F)c2o1` [Compound 86, 3-{4-[(5-Chloro-2,6-dimethyl-1-benzofuran-7-yl)methoxy]-3,5-difluorophenyl}propanoic acid] is 460 nM.
The figure for `Cc1oc2cccc(COc3ccc(CCC(=O)O)c(C)c3C)c2c1C` [Compound 60, 3-{4-[(2,3-Dimethyl-1-benzofuran-4-yl)methoxy]-2,3-dimethylphenyl}propanoic acid] is 706 nM.
